Assay results reported in patent US20190112317A1, “ACTIVATORS OF AUTOPHAGIC FLUX AND PHOSPHOLIPASE D AND CLEARANCE OF PROTEIN AGGREGATES INCLUDING TAU AND TREATMENT OF PROTEINOPATHIES” (The Trustees of Columbia University in the City of New York, priority 2015, published 2019).

Experiment: Photodiode array (PDA) detection of compound in mouse brain
Format: in vivo
Conditions: PDA spectrum, FIG. 1
Excerpt: FIG. 1 is a graph showing a photodiode array (PDA) spectrum of WHYKD8 in mouse brain.
A photodiode array (PDA) was used to detect WHYKD8 in mouse brain (FIG. 1).

- Detection in mouse brain: readily detected
SMILES: Oc1ccc(CCNc2ncnc3ccc(Cl)cc23)cc1 [WHYKD8]
